Test results from patent US8273389B2, “Compositions comprising cinnamon oil (and/or its component cinnamaldehyde) and diallyl disulfide, their formulations, and methods of use” (Valent BioSciences Corporation, priority 2008, dated 2012).

Tested on: Meloidogyne incognita (Root-knot nematode)
Assay: Greenhouse pot test, root galling of cucumber seedlings by root-knot nematode
Assay type: in vivo
Details: 25 ml soil drench, 800 J2 per pot, rated after 12-15 days, 0 = no galls, 9 = heavy galling; for Average Gall Rating (0-9): Example 2, 300 ppm AI (combined total for mixtures), nematode control 9; for Gall Rating (0-9): Example 3, 300 ppm AI (combined total for mixture), nematode control 8.25
Method: Tests are conducted in 2″ pots containing 125 grams non-pasteurized 2:1 sand soil mix containing 2 cucumber seedlings at the 1st true leaf stage (var. Straight Eight). Each treatment consists of 4 replicate pots. Application of test materials is carried out by drenching each pot with 25 milliliters of an aqueous dispersion of the formulation being tested. Several hours after the test materials are applied, 800, second stage juveniles (J2) of freshly hatched Meloidogyne incognita (Root-knot nematode), are applied to each pot with the exception of the untreated control. The pots are maintained for 12-15 days at standard greenhouse temperature and lighting conditions and watered as needed for the duration of the test. At harvest, the soil is removed from the roots by rinsing the roots in water. The roots are then rated for galling on a scale from 0-9 where 0 represents no galls and 9 represents heavy galling.
Tests are conducted in 2″ pots, as explained in Example 2 above.

Row | SMILES | Average Gall Rating (0-9) | Gall Rating (0-9)
1 | C=CCSSCC=C [Allyl disulfide (BAB-0294-75), diallyl disulfide] | 5 | 3.25
2 | O=CC=Cc1ccccc1 [Cinnamaldehyde, cinnamaldehyde] | 7.75 | 9
